Results published in ChEMBL document CHEMBL1201862, “PubChem BioAssay data set” (2004).
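Each compound was tested at five concentrations against cells in 96-well plates for 48 hours. GI50 marks 50% less growth.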 Calls of active or inactive are those of the source. No stated cut-off is given here; in the data, active = GI50 up to about 1.1 µM and inactive = higher. Square brackets hold non-standard residues; d marks the D form. Peptide text beside a SMILES is read from it. * marks the point of attachment. Tyr(3-Br) = N[C@@H](Cc1ccc(O)c(Br)c1)C(=O)O; Boc = CC(C)(C)OC(=O)*

Assays:
Test in all cases: NCI tumour cell line growth inhibition, 48 h
SW-620 = tested on: SW-620
CAKI-1 = tested on: CAKI-1
ACHN = tested on: ACHN
NCI/ADR-RES = tested on: NCI/ADR-RES
DU-145 = tested on: DU-145
A498 = tested on: A498
M14 = tested on: M14
NCI-H23 = tested on: NCI-H23
SNB-19 = tested on: SNB-19
CCRF-CEM = tested on: CCRF-CEM
SNB-75 = tested on: SNB-75
UACC-257 = tested on: UACC-257
T47D = tested on: T47D
SN12C = tested on: SN12C
MOLT-4 = tested on: MOLT-4
UACC-62 = tested on: UACC-62
BT-549 = tested on: BT-549
OVCAR-3 = tested on: OVCAR-3
HCC 2998 = tested on: HCC 2998

Row | SMILES | GI50 (SW-620) | GI50 (CAKI-1) | GI50 (ACHN) | GI50 (NCI/ADR-RES) | GI50 (DU-145) | GI50 (A498) | GI50 (M14) | GI50 (NCI-H23) | GI50 (SNB-19) | GI50 (CCRF-CEM) | GI50 (SNB-75) | GI50 (UACC-257) | GI50 (T47D) | GI50 (SN12C) | GI50 (MOLT-4) | GI50 (UACC-62) | GI50 (BT-549) | GI50 (OVCAR-3) | GI50 (HCC 2998)
1 | COC(=O)c1cc(C)n(CN(Cc2ccccc2)Cn2nc(C(=O)OC)cc2C)n1 | > 46.9 µM (inactive) | > 69.2 µM (inactive) | > 43.1 µM (inactive) | > 100 µM (inactive) | > 62.1 µM (inactive) | > 100 µM (inactive) | > 100 µM (inactive) | > 100 µM (inactive) | > 100 µM (inactive) | 17.1 µM (inactive) | > 27.2 µM (inactive) | > 100 µM (inactive) | > 48.3 µM (inactive) | > 100 µM (inactive) | > 100 µM (inactive) | > 31.9 µM (inactive) | > 100 µM (inactive) | > 100 µM (inactive) | –
2 | COC(=O)c1c(O)ccc2c1c1c(n2Cc2ccc(Cl)cc2Cl)C(=O)c2ccccc2C1 | 57 µM (inactive) | – | – | 34 µM (inactive) | > 100 µM (inactive) | > 100 µM (inactive) | 89.1 µM (inactive) | 60 µM (inactive) | 61.7 µM (inactive) | 23.2 µM (inactive) | 20 µM (inactive) | 42.2 µM (inactive) | 40.6 µM (inactive) | 23.1 µM (inactive) | 39.1 µM (inactive) | > 100 µM (inactive) | 75.9 µM (inactive) | 49.2 µM (inactive) | –
3 | C[n+]1cn(C2=C([N-]S(=O)(=O)c3ccccc3)C(=O)c3ccccc3C2=O)c2ccccc21 | 28.6 µM (inactive) | > 100 µM (inactive) | > 100 µM (inactive) | > 100 µM (inactive) | 52.7 µM (inactive) | – | 16.5 µM (inactive) | 16 µM (inactive) | 19.3 µM (inactive) | 39.6 µM (inactive) | 24.3 µM (inactive) | 19.4 µM (inactive) | 34.1 µM (inactive) | 31.3 µM (inactive) | 23.2 µM (inactive) | 22.5 µM (inactive) | 20.9 µM (inactive) | 3.06 µM (inactive) | 18.9 µM (inactive)
4 | O=c1c2nn[nH]c2nc2n1CC(c1ccccc1)S2 (configuration not stated) | > 100 µM (inactive) | 13 µM (inactive) | > 100 µM (inactive) | > 100 µM (inactive) | > 100 µM (inactive) | > 100 µM (inactive) | – | > 100 µM (inactive) | > 100 µM (inactive) | > 100 µM (inactive) | 72.1 µM (inactive) | > 100 µM (inactive) | > 100 µM (inactive) | > 100 µM (inactive) | > 100 µM (inactive) | > 100 µM (inactive) | > 100 µM (inactive) | > 100 µM (inactive) | > 100 µM (inactive)
5 | O=c1[nH]nc(-c2ccccc2)n1/N=C/c1cccnc1 | > 100 µM (inactive) | 25.1 µM (inactive) | 63.7 µM (inactive) | 69.8 µM (inactive) | 78.5 µM (inactive) | 27 µM (inactive) | > 100 µM (inactive) | > 100 µM (inactive) | > 100 µM (inactive) | 69.5 µM (inactive) | 50.6 µM (inactive) | > 100 µM (inactive) | 31.6 µM (inactive) | 65 µM (inactive) | 64 µM (inactive) | – | 39.2 µM (inactive) | > 100 µM (inactive) | 95.5 µM (inactive)
6 | CCNc1cc2oc(=O)cc(C(F)(F)F)c2cc1C | > 100 µM (inactive) | > 100 µM (inactive) | > 100 µM (inactive) | > 100 µM (inactive) | > 100 µM (inactive) | > 100 µM (inactive) | > 100 µM (inactive) | > 100 µM (inactive) | > 100 µM (inactive) | – | 27 µM (inactive) | > 100 µM (inactive) | > 100 µM (inactive) | > 100 µM (inactive) | > 100 µM (inactive) | > 100 µM (inactive) | > 100 µM (inactive) | > 100 µM (inactive) | > 100 µM (inactive)
7 | C/C(=N\Nc1nc2ccccc2o1)c1ccc2ccccc2n1 | 4.07 µM (inactive) | 1 µM (active) | 1.47 µM (inactive) | 3.22 µM (inactive) | 4.41 µM (inactive) | 2.55 µM (inactive) | 2.57 µM (inactive) | 8.75 µM (inactive) | 8.26 µM (inactive) | 2.04 µM (inactive) | 11.6 µM (inactive) | 6.71 µM (inactive) | 0.279 µM (active) | 3.42 µM (inactive) | 1.97 µM (inactive) | 3.8 µM (inactive) | 20.7 µM (inactive) | 0.52 µM (active) | –
8 | COC(=O)[C@H](Cc1ccc(O)c(Br)c1)NC(=O)[C@H](Cc1ccc(O)cc1)NC(=O)OC(C)(C)C (Boc-Tyr-[Tyr(3-Br)]-OMe) | 42.6 µM (inactive) | > 100 µM (inactive) | 37.3 µM (inactive) | > 100 µM (inactive) | 61.9 µM (inactive) | > 100 µM (inactive) | 33.1 µM (inactive) | 27.4 µM (inactive) | > 100 µM (inactive) | 23.8 µM (inactive) | 92 µM (inactive) | 43.8 µM (inactive) | 20.8 µM (inactive) | 78.5 µM (inactive) | 48.2 µM (inactive) | – | 35.2 µM (inactive) | 20.7 µM (inactive) | 31.6 µM (inactive)
